The subject of data set [1] is Mtb H37Rv (ATCC 27294). Put plainly: Resazurin microtiter assay (REMA), MIC90 against bacteria in active state. The class given is cell-based. The note with it: Mycobacterium tuberculosis. Background: Resazurin is reduced to fluorescent resorufin, in cell work by metabolically active cells.
Data set [2] has as its system Escherichia coli (ATCC 25922). In words: Spectrum of activity, OD570 after 16 h. Format: cell-based. Conditions: ATCC25922, read-out: MIC90 (antimicrobial activity). The method, then: (§1) Determination of Minimal Inhibitory Concentration (MIC90) Against Bacteria in Dormant […]
(§2) The selective compounds (SI ≥ 10) were tested against the mycobacterium in a dormant state. The cultures were thawed, diluted in Middlebrook 7H12 broth, and sonicated for 5 s. The cultures were diluted to obtain the concentration between […] and 2 × 10^6 CFU/mL. TwoHfold serial dilutions of the compounds were prepared in a volume of […] in white 96Hwell microtiter plates, followed by the addition of […] of the cell suspension. The microplate cultures were placed under anaerobic conditions (oxygen concentration less than 0.16%) by using an Anoxomat model WS8080 (MART Microbiology) followed by two cycles of evacuation and filling with a mixture of 10% hydrogen (H2), 5% carbon dioxide (CO2), and the balance with nitrogen (N2). An anaerobic indicator strip was placed inside the chamber to visually confirm the removal of oxygen. The plates were incubated at 37°C for 10 days and then transferred to an ambient gaseous condition (5% CO2H enriched air) incubator for a 28 h “recovery.” On day 11 (after the 28Hh aerobic recovery), we determined the luminescence and calculated the MIC90.4
(§3) To establish the spectrum activity, we determined the MIC90 against E. coli (ATCC 25922) and S. aureus (ATCC 29213) by measuring the optical density at 570 nm after 16 h of incubation in Mueller–Hinton II broth (Becton Dickinson, Sparks; Maryland, United States) and against C. albicans (ATCC 10231) at OD570 after 48 h in Cellgro RPMI 1640 medium (Mediatech Inc., Manassas, Virginia, United States). The MIC was defined as the lowest concentration resulting in 90% reduction in absorption relative to that of untreated control cultures.
(§4) Determination of Minimal Inhibitory Concentration Against Isogenic Monoresistant Strains

Data set [3] concerns Staphylococcus aureus (ATCC 29213). Put plainly: Spectrum of activity, OD570 after 16 h. The class given is cell-based. The note with it: ATCC29213, read-out: MIC90 (antimicrobial activity). The method, then:
as §1, §2, §3, §4

Data set [4] has as its system Candida albicans (ATCC 10231). Put plainly: Spectrum of activity, OD570 after 48 h. The class given is cell-based. Conditions: ATCC10231, read-out: MIC90 (antimicrobial activity). The method, then:
as §1, §2, §3, §4

In data set [5] the test system is M. tuberculosis H37Rv (ATCC 27294) in J774A.1 macrophages. Put plainly: Intramacrophage activity. Format: cell-based, Mycobacterium tuberculosis.
The subject of data set [6] is M. tuberculosis H37Rv (ATCC 27294). In words: Time-kill curves (bactericidal kinetics). The class given is cell-based, Mycobacterium tuberculosis.
Data set [7] concerns human plasma. In words: Plasma protein binding assay (rapid equilibrium dialysis). Format: in vitro ADME. Conditions: 5 µM, 4 h at 37°C. The method, then: (§5) In vitro hydrolysis was performed by HPLC method using a Shimadzu HPLC model CBMH20A (Shimadzu®) and an Agilent® Eclipse XDB C18 column (250 × 4.6 mm, 5 µm). The isocratic flow was 60:40 (water:acetonitrile, v/v) and the flow rate was 1.0 mL/min. The volume injected was 20.0 µL and the wavelength in the detector (UVHVIS) was 210 nm. […]
(§6) of 100 µg/mL. This solution was then diluted to 20 µg/mL using two different PBS buffers to provide the following pH values: 5.5 and 7.4. During the assay, all samples were maintained at constant agitation using a shaker (400 rpm) at 37°C. The aliquots were taken from the solution at the following times: 0, 1, 2, 4, 8, 10, 20, and 24 h. All analyses were conducted in triplicate, and the results were expressed as the averages of the concentrations in percentages (±standard error of the […]
(§7) Plasma Protein Binding Assay […]
of the mixture in a RED (Rapid Equilibrium Dialysis, Pierce) device against PBS and incubated on an orbital shaker for 4 h at 37°C. Aliquots from plasmaH and PBSHbased samples were collected, an equal volume of PBS was added to the plasma sample, and an equal volume of plasma was added to the PBS sample. […] The samples were centrifuged and the supernatant was recovered and analyzed by Liquid chromatography–mass spectrometry (LCHMS)/MS. […]

The nature of data set [8]: Caco-2 permeability assay. The class given is in vitro ADME. Conditions: human, basolateral to apical. The method, then: as §5, §6, §7
(§8) of the mixture in a RED (Rapid Equilibrium Dialysis, Pierce) device against PBS and incubated on an orbital shaker for 4 h at 37°C. […] The samples were centrifuged and the supernatant was recovered and analyzed by Liquid chromatography–mass spectrometry (LCHMS)/MS. […]
(§9) the twoHday interval. […] Similarly, for basolateral to apical (B→A) permeability, the compound was added to the B side and the amount of permeation was determined on the A side. […]
In general terms: Caco-2 monolayers are a common model of the intestinal barrier.

Data set [9] relates to Caco-2 cells. Put plainly: Caco-2 permeability assay. The class given is in vitro ADME. The protocol: as §5, §6, §7, §8, §9
In data set [10] the test system is M. tuberculosis Erdman. Put plainly: Infection and treatment: efficacy against acute TB in mice. Format: in vivo, mouse. The note with it: 200 mg/kg in microemulsion, once daily oral gavage, 5 days/week, day 10 to 29 postinfection, BALB/c mice.
The test system of data set [11] is M. tuberculosis H37Rv. In words: Microarray gene expression analysis. Conditions: 4 h of exposure at 2× MIC, versus vehicle. Format: cell-based, Mycobacterium tuberculosis.
Data set [12] deals with BALB/c mice. Conditions: H&E, group treated with compound 8.
In data set [13] the test system is cytochrome P450 isoforms (all isoforms tested). In words: in vitro. Conditions: human, microsomes.
Data set [14] is described as follows: Cytotoxicity against MRC-5 cell line. The note with it: human, cytotoxicity IC50, MRC-5 cell line.
The subject of data set [15] is mouse peripheral blood reticulocytes. Conditions: 50, 100, 200 and 500 mg/kg by gavage, Swiss mice.
In data set [16] the test system is BALB/c mice. In words: Tolerability test in BALB/c mice and toxicological analysis. Conditions: 10 days.
Setting [17] is: 200 mg/kg daily oral, vs control group.

Converted amounts (≈) assume the structure as drawn. “And” between values parts separate entries of the source, which are not always exact repeats. Equal entries are not always repeated. “Also recorded” adds a separate entry of the source. Where two headings read alike, the source gives them in different places.

The text below walks through data of article PMC5677254, “Design, Synthesis, and Characterization of N-Oxide-Containing Heterocycles with in Vivo Sterilizing Antitubercular Activity” (Journal of Medicinal Chemistry, 2017).

As a reminder, the MIC90 is the lowest concentration that inhibits either 90% of growth or 90% of the strains tested, depending on the study. The Papp B→A is the apparent permeability from the basolateral to the apical side of a cell layer. As usually defined, the IC50 is the point on the concentration scale where inhibition reaches its midpoint. Read a high IC50 as lower potency. With `O=C(N/N=C/c1ccc2no[n+]([O-])c2c1)c1ccncc1` [Compound 8, (E)-6-((2-Isonicotinoylhydrazono)methyl)benzo[c][1,2,5]oxadiazole 1-Oxide], the MIC90 in data set [1] (actively replicating M. tuberculosis H37Rv, REMA, read-out: MIC90) is 1.1 µM and 0.31 µg/mL; in [1] (supplementary CSV, read-out: Mtb MIC90), 1.1 µM (≈ 0.312 µg/mL); in data set [2], above 200 µM; in [3] it was above 200 µM; in [4], above 200 µM. Further, the intracellular inhibition result in data set [5] is recorded as “around 90%”. Also, the “reduction of CFU (sterilization of cultures)” value in data set [6] (after 48 h of exposure, 41.24 μM) is around 6.7 log10. Moreover, in [6] (time-kill kinetic experiments up to 15 days), the bactericidal profile result was “bactericidal with an early bactericidal effect”. The “human plasma protein binding (% free)” value in data set [7] is reported as 46.5 % free. Also, the basolateral-to-apical permeability (Papp B→A) in data set [8] was found to be 3.9 ×10⁻⁶ cm/s. The Caco-2 permeability profile entry in data set [9] was “good permeability profile”. Moreover, the “Mtb colonies (CFU) in homogenized lungs” value in data set [10] is listed as “reduction of Mtb to undetectable levels; also recorded: no colonies were observed; also recorded: No detectable Mtb”. Also, in [11], the “effect on gene expression” value was “significant upregulation in the majority of ribosomal genes as well as all genes encoding subunits of ATP synthase”. Moreover, the histology of kidneys entry in [12] was “morphologically normal”. Also, the IC50 was above 15 µM in data set [13] and 147 µg/mL (≈ 519 µM) in data set [14]. Also, the “genotoxicity (micronucleated reticulocytes)” value in data set [15] was “not genotoxic at any concentration tested”. Further, in [16] (200 mg/kg daily oral gavage), the “behavior parameters (hippocratic screening)” value is reported as “No significant variation in the behavior”. Moreover, in data set [16] (setting [17]), the “alanine aminotransferase in plasma” value is recorded as “no significant differences”. Also, in data set [16] (setting [17]), the “alkaline phosphatase in plasma” value is “no significant differences”. In [16] (setting [17]), the “aspartate aminotransferase in plasma” value is reported as “no significant differences”. In addition, the “changes in the weight of organs (heart, lungs, spleen, kidneys, liver)” value in [16] (setting [17]) is “No statistically significant difference”.
